Columns and labels:
Assay in all cases: relative viability (nuclei count vs DMSO), 5 days (fraction); higher = more cells survive
[1] = compound: CC(C)C[C@H](NC(=O)[C@H](Cc1ccccc1)NC(=O)c1cnccn1)B(O)O [Bortezomib] + N=C(N)NC(=N)NCCc1ccccc1 [Phenformin] (partner 250 µM)
Method in brief: (§1)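 Five library-drug doses in √10 steps were combined with a fixed anchor-drug dose, or a single drug was given alone, by pin tool to lung cancer cell lines in 1536-well plates the day after seeding. Nuclei were stained and counted after 5 days. Relative viability is the nuclei count in treated wells over that in vehicle wells, taken as the median of duplicate plates.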

[2] = compound: CC1=CC(=NN1)NC2=CC(=NC(=N2)/C=C/C3=CC=CC=C3)N4CCN(CC4)C + Cc1nc(Nc2ncc(C(=O)Nc3c(C)cccc3Cl)s2)cc(N2CCN(CCO)CC2)n1 [Dasatinib] (partner 0.075 µM)
Method in brief: as §1

[3] = compound: COC1=CC(c2cc3ccccc3[nH]2)=N/C1=C\c1[nH]c(C)cc1C [Obatoclax] + COc1cc2c(Oc3ccc(NC(=O)C4(C(=O)Nc5ccc(F)cc5)CC4)cc3F)ccnc2cc1OCCCN1CCOCC1 [Foretinib] (partner 0.25 µM)
Method in brief: as §1

[4] = compound: COC1=CC(c2cc3ccccc3[nH]2)=N/C1=C\c1[nH]c(C)cc1C [Obatoclax] + Nc1ncn([C@H]2C[C@H](O)[C@@H](CO)O2)c(=O)n1 [Decitabine] (partner 2 µM)
Method in brief: as §1

Cell Line | relative viability ([1]; first compound 0.0002 µM) | relative viability ([1]; first compound 0.000632 µM) | relative viability ([1]; first compound 0.002 µM) | relative viability ([1]; first compound 0.006325 µM) | relative viability ([1]; first compound 0.02 µM) | relative viability ([2]; first compound 0.08 µM) | relative viability ([2]; first compound 0.253 µM) | relative viability ([2]; first compound 0.8 µM) | relative viability ([2]; first compound 2.53 µM) | relative viability ([2]; first compound 8 µM) | relative viability ([3]; first compound 0.01 µM) | relative viability ([3]; first compound 0.03162 µM) | relative viability ([3]; first compound 0.1 µM) | relative viability ([3]; first compound 0.3162 µM) | relative viability ([3]; first compound 1 µM) | relative viability ([4]; first compound 0.01 µM) | relative viability ([4]; first compound 0.03162 µM) | relative viability ([4]; first compound 0.1 µM) | relative viability ([4]; first compound 0.3162 µM) | relative viability ([4]; first compound 1 µM)
PC-3 [JPC-3] | 0.495 | 0.485 | 0.472 | 0.24 | 0.175 | 0.931 | 1.04 | 0.978 | 0.948 | 0.802 | 1 | 1.03 | 1.01 | 1.01 | 0.916 | 0.826 | 0.799 | 0.776 | 0.732 | 0.501
HCC-44 | 0.195 | 0.194 | 0.204 | 0.162 | 0.111 |  |  |  |  |  |  |  |  |  |  | 0.968 | 0.643 | 0.966 | 0.902 | 0.84
NCI-H2405 | 0.513 | 0.319 | 0.393 | 0.241 | 0.109 | 0.227 | 0.216 | 0.206 | 0.165 | 0.109 | 1.09 | 1.06 |  | 1.07 | 1.13 | 0.769 | 0.717 |  | 0.762 | 0.63
LXF-289 | 0.556 | 0.507 | 0.483 | 0.076 | 0.0724 | 0.258 | 0.26 | 0.187 | 0.0576 | 0.0234 | 0.91 | 0.988 | 1.05 | 0.932 | 1.02 | 0.346 | 0.385 | 0.372 | 0.342 | 0.408
LOU-NH91 | 0.774 | 0.645 | 0.661 | 0.282 | 0.261 | 0.576 | 0.614 | 0.61 | 0.448 | 0.302 | 0.918 | 0.917 | 0.787 | 0.904 | 0.819 | 0.743 | 0.833 | 0.728 | 0.758 | 0.606
A549 | 0.154 | 0.231 | 0.18 | 0.0502 | 0.0365 |  |  |  |  |  | 0.958 | 0.947 | 0.979 | 0.959 | 0.764 | 0.205 | 0.122 |  | 0.282 | 0.309
H3255 | 0.368 | 0.346 | 0.334 | 0.307 | 0.288 | 0.346 | 0.347 | 0.352 | 0.427 | 0.242 | 0.826 | 0.802 | 0.891 | 1.05 | 0.996 | 0.595 | 0.581 |  | 0.589 | 0.623
NCI-H1395 | 0.477 | 0.435 | 0.446 | 0.361 | 0.27 | 0.424 | 0.409 | 0.4 | 0.344 | 0.28 | 0.938 | 0.702 | 0.929 | 1.01 | 0.766 | 0.716 | 0.735 | 0.754 | 0.695 | 0.513
LC-2-ad | 0.686 | 0.507 | 0.557 | 0.19 | 0.146 | 0.611 | 0.367 | 0.257 | 0.182 | 0.134 | 0.997 | 0.876 | 0.869 | 0.897 | 0.525 | 0.706 | 0.784 | 0.82 | 0.742 | 0.847
NCI-H838 | 0.6 | 0.526 | 0.64 | 0.127 | 0.115 | 0.3 | 0.279 | 0.247 | 0.255 | 0.141 | 1.03 | 1.11 | 0.996 | 1.1 | 0.858 | 0.471 | 0.412 | 0.511 | 0.338 | 0.32
Calu-6 |  |  |  |  |  |  |  |  |  |  | 0.901 | 0.739 | 0.927 | 0.919 | 0.321 |  |  |  |  | 
SW 900 | 0.534 | 0.548 | 0.13 | 0.123 | 0.0977 | 0.644 | 0.585 | 0.413 | 0.418 | 0.0713 | 0.895 | 0.743 | 0.759 | 0.536 | 0.738 | 0.438 | 0.426 | 0.364 | 0.402 | 0.382
LCLC-97TM1 | 0.426 | 0.403 | 0.433 | 0.257 | 0.159 | 0.867 | 0.724 | 0.885 | 0.622 | 0.552 | 0.996 | 0.954 | 0.873 | 0.872 | 0.9 | 0.216 | 0.197 | 0.196 | 0.214 | 0.192
HCC-15 | 0.44 | 0.448 | 0.458 | 0.0952 | 0.0863 | 0.634 | 0.672 | 0.479 | 0.0991 | 0.0639 | 1.04 | 1.05 | 0.846 | 0.912 | 0.857 | 0.678 | 0.568 | 0.509 | 0.615 | 0.434
CAL-12T | 0.552 | 0.585 | 0.586 | 0.25 | 0.114 | 0.52 | 0.38 | 0.342 | 0.0924 | 0.0804 | 1.11 | 1.16 | 1.09 | 0.343 | 0.134 |  |  |  |  | 
NCI-H727 | 0.542 | 0.475 | 0.548 | 0.301 | 0.178 | 0.372 |  | 0.407 | 0.257 | 0.186 | 1.04 | 0.628 | 1.07 | 0.699 | 1.08 | 0.916 | 0.731 | 0.798 | 0.591 | 0.872
ABC-1 | 0.231 | 0.227 | 0.202 | 0.186 | 0.175 | 0.496 | 0.692 | 0.522 | 0.207 | 0.145 | 1.11 | 1.15 | 1.23 | 1.06 | 0.975 | 1.38 | 1.31 | 0.999 | 1.17 | 1.07
